# Measurements published in PubChem BioAssay AID1963960 (Molecular Pharmacology Branch, DTP, NCI, 2024).
# pIC50: −log10 of the molar value.
# System: MDA-MB-468 spheroids with HUVEC/MSC, viability
# Assay: Anticancer human tumor MDA-MB-468 cell line growth inhibition [PI3K];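 further: spheroids exposed to agents for seven days before readout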;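 on viability, T/C: 100% = DMSO vehicle control viability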
# Details: for pIC50: curve of first compound; for viability, T/C: stronger effect = lower value
# Summary of the method: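 High-throughput combination screen: PI3K inhibitors crossed with targeted small molecules on complex spheroids of tumor cells, HUVEC and MSCs at 37 degrees C, 5% CO2. Top concentration was at or near clinical Cmax (otherwise 10 microM), with half-log decrements.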
# [1] = second compound 0.0316 µM, first compound 0.0316 µM
# [2] = second compound 0.0316 µM, first compound 0.1 µM
# [3] = second compound 0.0316 µM, first compound 0.316 µM
# [4] = second compound 0.0316 µM, first compound 1 µM
# [5] = second compound 0.0316 µM, first compound 3.16 µM
# [6] = second compound 0.0316 µM, first compound 10 µM
# [7] = second compound 0.1 µM, first compound 0.0316 µM
# [8] = second compound 0.1 µM, first compound 0.1 µM
# [9] = second compound 0.1 µM, first compound 0.316 µM
# [10] = second compound 0.1 µM, first compound 1 µM
# [11] = second compound 0.1 µM, first compound 3.16 µM
# [12] = second compound 0.1 µM, first compound 10 µM
# [13] = second compound 0.316 µM, first compound 0.0316 µM
# [14] = second compound 0.316 µM, first compound 0.1 µM
# [15] = second compound 0.316 µM, first compound 0.316 µM
# [16] = second compound 0.316 µM, first compound 1 µM
# [17] = second compound 0.316 µM, first compound 3.16 µM
# [18] = second compound 0.316 µM, first compound 10 µM
# [19] = second compound 1 µM, first compound 0.0316 µM
# [20] = second compound 1 µM, first compound 0.1 µM
# [21] = second compound 1 µM, first compound 0.316 µM
# [22] = second compound 1 µM, first compound 1 µM
# [23] = second compound 1 µM, first compound 3.16 µM
# [24] = second compound 1 µM, first compound 10 µM
# [25] = second compound 3.16 µM, first compound 0.0316 µM
# [26] = second compound 3.16 µM, first compound 0.1 µM
# [27] = second compound 3.16 µM, first compound 0.316 µM
# [28] = second compound 3.16 µM, first compound 1 µM
# [29] = second compound 3.16 µM, first compound 3.16 µM
# [30] = second compound 3.16 µM, first compound 10 µM
# [31] = second compound 10 µM, first compound 0.0316 µM
# [32] = second compound 10 µM, first compound 0.1 µM
# [33] = second compound 10 µM, first compound 0.316 µM
# [34] = second compound 10 µM, first compound 1 µM
# [35] = second compound 10 µM, first compound 3.16 µM
# [36] = second compound 10 µM, first compound 10 µM
smiles,measurement,setting,value
C#Cc1c(F)ccc2cc(O)cc(-c3ncc4c(N5CC6CCC(C5)N6)nc(OCC56CCCN5CC(F)C6)nc4c3F)c12 (stereo not drawn) + CC(Nc1ncnc2nc[nH]c12)c1cc2cccc(Cl)c2c(=O)n1-c1ccccc1,pIC50,second compound 0.0316 µM,< 5.00
same,pIC50,second compound 0.1 µM,< 5.00
same,pIC50,second compound 0.316 µM,< 5.00
same,pIC50,second compound 1 µM,< 5.00
same,pIC50,second compound 3.16 µM,5.31
same,pIC50,second compound 10 µM,> 7.50
same,"viability, T/C",[1],104%
same,"viability, T/C",[2],94.7%
same,"viability, T/C",[3],92.3%
same,"viability, T/C",[4],92.3%
same,"viability, T/C",[5],90.5%
same,"viability, T/C",[6],62.8%
same,"viability, T/C",[7],96.5%
same,"viability, T/C",[8],91.2%
same,"viability, T/C",[9],88.6%
same,"viability, T/C",[10],90.4%
same,"viability, T/C",[11],81.2%
same,"viability, T/C",[12],57.1%
same,"viability, T/C",[13],78.7%
same,"viability, T/C",[14],67.7%
same,"viability, T/C",[15],70.8%
same,"viability, T/C",[16],83.6%
same,"viability, T/C",[17],75.2%
same,"viability, T/C",[18],54.5%
same,"viability, T/C",[19],68%
same,"viability, T/C",[20],72.8%
same,"viability, T/C",[21],63.7%
same,"viability, T/C",[22],70.5%
same,"viability, T/C",[23],62%
same,"viability, T/C",[24],52.1%
same,"viability, T/C",[25],63.4%
same,"viability, T/C",[26],57.5%
same,"viability, T/C",[27],55.3%
same,"viability, T/C",[28],60%
same,"viability, T/C",[29],54.3%
same,"viability, T/C",[30],43%
same,"viability, T/C",[31],39.2%
same,"viability, T/C",[32],39.8%
same,"viability, T/C",[33],35.5%
same,"viability, T/C",[34],40.4%
same,"viability, T/C",[35],38.6%
same,"viability, T/C",[36],28.2%
C=CC(=O)N1CCN(c2nc(=O)n(-c3c(C)ccnc3C(C)C)c3nc(-c4c(O)cccc4F)c(F)cc23)C(C)C1 (stereo not drawn) + CC(Nc1ncnc2nc[nH]c12)c1cc2cccc(Cl)c2c(=O)n1-c1ccccc1,pIC50,second compound 0.0316 µM,< 5.00
same,pIC50,second compound 0.1 µM,< 5.00
same,pIC50,second compound 0.316 µM,< 5.00
same,pIC50,second compound 1 µM,< 5.00
same,pIC50,second compound 3.16 µM,< 5.00
same,pIC50,second compound 10 µM,> 7.50
same,"viability, T/C",[1],88.1%
same,"viability, T/C",[2],93%
same,"viability, T/C",[3],99.4%
same,"viability, T/C",[4],99.3%
same,"viability, T/C",[5],86.1%
same,"viability, T/C",[6],74.2%
same,"viability, T/C",[7],89.3%
same,"viability, T/C",[8],79.8%
same,"viability, T/C",[9],83.7%
same,"viability, T/C",[10],94.2%
same,"viability, T/C",[11],91.1%
same,"viability, T/C",[12],73.7%
same,"viability, T/C",[13],70.4%
same,"viability, T/C",[14],74.4%
same,"viability, T/C",[15],84.3%
same,"viability, T/C",[16],94.7%
same,"viability, T/C",[17],76.9%
same,"viability, T/C",[18],61.4%
same,"viability, T/C",[19],70.6%
same,"viability, T/C",[20],61.4%
same,"viability, T/C",[21],82.2%
same,"viability, T/C",[22],84.6%
same,"viability, T/C",[23],84.4%
same,"viability, T/C",[24],60.6%
same,"viability, T/C",[25],54.5%
same,"viability, T/C",[26],57.1%
same,"viability, T/C",[27],61.4%
same,"viability, T/C",[28],68.5%
same,"viability, T/C",[29],70.6%
same,"viability, T/C",[30],51%
same,"viability, T/C",[31],41%
same,"viability, T/C",[32],46.7%
same,"viability, T/C",[33],47.1%
same,"viability, T/C",[34],51.1%
same,"viability, T/C",[35],50.1%
same,"viability, T/C",[36],37.4%
CC(Cn1ccc(-c2ccc(C#N)c(Cl)c2)n1)NC(=O)c1cc(C(C)O)[nH]n1 (stereo not drawn) + CC(Nc1ncnc2nc[nH]c12)c1cc2cccc(Cl)c2c(=O)n1-c1ccccc1,pIC50,second compound 0.0316 µM,< 5.00
same,pIC50,second compound 0.1 µM,< 5.00
same,pIC50,second compound 0.316 µM,< 5.00
same,pIC50,second compound 1 µM,< 5.00
same,pIC50,second compound 3.16 µM,< 5.00
same,pIC50,second compound 10 µM,> 7.50
same,"viability, T/C",[1],82%
same,"viability, T/C",[2],92.4%
same,"viability, T/C",[3],90.2%
same,"viability, T/C",[4],90.3%
same,"viability, T/C",[5],88.8%
same,"viability, T/C",[6],79.1%
same,"viability, T/C",[7],86.8%
same,"viability, T/C",[8],80.7%
same,"viability, T/C",[9],76.5%
same,"viability, T/C",[10],88.4%
same,"viability, T/C",[11],89%
same,"viability, T/C",[12],71.7%
same,"viability, T/C",[13],85.7%
same,"viability, T/C",[14],93.6%
same,"viability, T/C",[15],72.7%
same,"viability, T/C",[16],76.1%
same,"viability, T/C",[17],70.7%
same,"viability, T/C",[18],66.3%
same,"viability, T/C",[19],55.9%
same,"viability, T/C",[20],69.1%
same,"viability, T/C",[21],60.2%
same,"viability, T/C",[22],73.9%
same,"viability, T/C",[23],66.6%
same,"viability, T/C",[24],57.6%
same,"viability, T/C",[25],60.6%
same,"viability, T/C",[26],58.8%
same,"viability, T/C",[27],60.8%
same,"viability, T/C",[28],52.4%
same,"viability, T/C",[29],56.5%
same,"viability, T/C",[30],47.1%
same,"viability, T/C",[31],45.8%
same,"viability, T/C",[32],40.5%
same,"viability, T/C",[33],40.7%
same,"viability, T/C",[34],43.1%
same,"viability, T/C",[35],44.5%
same,"viability, T/C",[36],38.6%
CC1(C)CCC(Nc2ncc(C(F)(F)F)c(-c3c[nH]c4c(P(C)(C)=O)c(C#N)ccc34)n2)CN1 (stereo not drawn) + CC(Nc1ncnc2nc[nH]c12)c1cc2cccc(Cl)c2c(=O)n1-c1ccccc1,pIC50,second compound 0.0316 µM,> 7.50
same,pIC50,second compound 0.1 µM,> 7.50
same,pIC50,second compound 0.316 µM,> 7.50
same,pIC50,second compound 1 µM,> 7.50
same,pIC50,second compound 3.16 µM,> 7.50
same,pIC50,second compound 10 µM,> 7.50
same,"viability, T/C",[1],11.2%
same,"viability, T/C",[2],8.83%
same,"viability, T/C",[3],8.44%
same,"viability, T/C",[4],8.51%
same,"viability, T/C",[5],9.51%
same,"viability, T/C",[6],1.74%
same,"viability, T/C",[7],12.5%
same,"viability, T/C",[8],11.6%
same,"viability, T/C",[9],8.64%
same,"viability, T/C",[10],8.66%
same,"viability, T/C",[11],8.77%
same,"viability, T/C",[12],1.45%
same,"viability, T/C",[13],11.2%
same,"viability, T/C",[14],11%
same,"viability, T/C",[15],9.67%
same,"viability, T/C",[16],8.74%
same,"viability, T/C",[17],9.29%
same,"viability, T/C",[18],1.74%
same,"viability, T/C",[19],12.8%
same,"viability, T/C",[20],10.6%
same,"viability, T/C",[21],9.64%
same,"viability, T/C",[22],9.48%
same,"viability, T/C",[23],9.76%
same,"viability, T/C",[24],1.16%
same,"viability, T/C",[25],11.8%
same,"viability, T/C",[26],10.2%
same,"viability, T/C",[27],11.1%
same,"viability, T/C",[28],9.71%
same,"viability, T/C",[29],7.09%
same,"viability, T/C",[30],1.3%
same,"viability, T/C",[31],12.6%
same,"viability, T/C",[32],10.8%
same,"viability, T/C",[33],10%
same,"viability, T/C",[34],10%
same,"viability, T/C",[35],7.06%
same,"viability, T/C",[36],1.03%
